Reference: US9006250B2, “4-amino-6-(heterocyclic)picolinates and 6-amino-2-(heterocyclic)pyrimidine-4-carboxylates and their use as herbicides” (Dow AgroSciences, LLC, priority 2013, dated 2015)

Experiments:
[1] = test system: BRSNN: oilseed rape, canola (Brassica napus); assay: Post-Emergent Test II herbicidal activity; assay type: in vivo; settings: post-emergence, 336 h, 14 days, read-out: Visual Growth Reduction (%) 14 Days After Application BRSNN; for pest or weed control at 35 g/ha: 35 g ai/ha; for pest or weed control at 70 g/ha: 70 g ai/ha; for pest or weed control at 140 g/ha: 140 g ai/ha
Procedure, shortened: (§1)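 Plants grown in greenhouse (~15 h photoperiod, 23-29° C day) to first or second true leaf stage, then sprayed with compound in acetone/DMSO-based aqueous formulation with crop oil and surfactant at 187 L/ha, serial twofold rates. Injury scored visually after 14 d, 0-100% versus untreated plants.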

[2] = test system: EPHHL: wild poinsettia (Euphorbia heterophylla); assay: Post-Emergent Test II herbicidal activity; assay type: in vivo; settings: post-emergence, 336 h, 14 days, read-out: Visual Growth Reduction (%) 14 Days After Application EPHHL; for pest or weed control at 35 g/ha: 35 g ai/ha; for pest or weed control at 70 g/ha: 70 g ai/ha; for pest or weed control at 140 g/ha: 140 g ai/ha
Procedure, shortened: as §1

[3] = test system: ZEAMX: maize, corn (Zea mays); assay: Post-Emergent Test II herbicidal activity; assay type: in vivo; settings: post-emergence, 336 h, 14 days, read-out: Visual Growth Reduction (%) 14 Days After Application ZEAMX; for pest or weed control at 35 g/ha: 35 g ai/ha; for pest or weed control at 70 g/ha: 70 g ai/ha; for pest or weed control at 140 g/ha: 140 g ai/ha
Procedure, shortened: as §1

[4] = test system: TRZAS: wheat, spring (Triticum aestivum); assay: Post-Emergent Test II herbicidal activity; assay type: in vivo; settings: post-emergence, 336 h, 14 days, read-out: Visual Growth Reduction (%) 14 Days After Application TRZAS; for pest or weed control at 35 g/ha: 35 g ai/ha; for pest or weed control at 70 g/ha: 70 g ai/ha; for pest or weed control at 140 g/ha: 140 g ai/ha
Procedure, shortened: as §1

[5] = test system: SETFA: giant foxtail (Setaria faberi); assay: Post-Emergent Test II herbicidal activity; assay type: in vivo; settings: post-emergence, 336 h, 14 days, read-out: Visual Growth Reduction (%) 14 Days After Application SETFA; for pest or weed control at 35 g/ha: 35 g ai/ha; for pest or weed control at 70 g/ha: 70 g ai/ha; for pest or weed control at 140 g/ha: 140 g ai/ha
Procedure, shortened: as §1

[6] = test system: AMARE: redroot pigweed (Amaranthus retroflexus); assay: Post-Emergent Test II herbicidal activity; assay type: in vivo; settings: post-emergence, 336 h, 14 days, read-out: Visual Growth Reduction (%) 14 Days After Application AMARE; for pest or weed control at 35 g/ha: 35 g ai/ha; for pest or weed control at 70 g/ha: 70 g ai/ha; for pest or weed control at 140 g/ha: 140 g ai/ha
Procedure, shortened: as §1

[7] = test system: ECHCG: barnyardgrass (Echinochloa crus-galli); assay: Post-Emergent Test II herbicidal activity; assay type: in vivo; settings: post-emergence, 336 h, 14 days, read-out: Visual Growth Reduction (%) 14 Days After Application ECHCG; for pest or weed control at 35 g/ha: 35 g ai/ha; for pest or weed control at 70 g/ha: 70 g ai/ha; for pest or weed control at 140 g/ha: 140 g ai/ha
Procedure, shortened: as §1

[8] = test system: ORYSA: rice (Oryza sativa); assay: Post-Emergent Test II herbicidal activity; assay type: in vivo; settings: post-emergence, 336 h, 14 days, read-out: Visual Growth Reduction (%) 14 Days After Application ORYSA; for pest or weed control at 35 g/ha: 35 g ai/ha; for pest or weed control at 70 g/ha: 70 g ai/ha; for pest or weed control at 140 g/ha: 140 g ai/ha
Procedure, shortened: as §1

[9] = test system: CHEAL: lambsquarters (Chenopodium album); assay: Post-Emergent Test II herbicidal activity; assay type: in vivo; settings: post-emergence, 336 h, 14 days, read-out: Visual Growth Reduction (%) 14 Days After Application CHEAL; for pest or weed control at 35 g/ha: 35 g ai/ha; for pest or weed control at 70 g/ha: 70 g ai/ha; for pest or weed control at 140 g/ha: 140 g ai/ha
Procedure, shortened: as §1

[10] = test system: ABUTH: velvetleaf (Abutilon theophrasti); assay: Post-Emergent Test II herbicidal activity; assay type: in vivo; settings: post-emergence, 336 h, 14 days, read-out: Visual Growth Reduction (%) 14 Days After Application ABUTH; for pest or weed control at 35 g/ha: 35 g ai/ha; for pest or weed control at 70 g/ha: 70 g ai/ha; for pest or weed control at 140 g/ha: 140 g ai/ha
Procedure, shortened: as §1

[11] = test system: CYPES: yellow nutsedge (Cyperus esculentus); assay: Post-Emergent Test II herbicidal activity; assay type: in vivo; settings: post-emergence, 336 h, 14 days, read-out: Visual Growth Reduction (%) 14 Days After Application CYPES; for pest or weed control at 35 g/ha: 35 g ai/ha; for pest or weed control at 70 g/ha: 70 g ai/ha; for pest or weed control at 140 g/ha: 140 g ai/ha
Procedure, shortened: as §1

[12] = test system: HELAN: sunflower (Helianthus annuus); assay: Post-Emergent Test II herbicidal activity; assay type: in vivo; settings: post-emergence, 336 h, 14 days, read-out: Visual Growth Reduction (%) 14 Days After Application HELAN; for pest or weed control at 35 g/ha: 35 g ai/ha; for pest or weed control at 70 g/ha: 70 g ai/ha; for pest or weed control at 140 g/ha: 140 g ai/ha
Procedure, shortened: as §1

SMILES | melting point | pest or weed control at 35 g/ha [1] | pest or weed control at 70 g/ha [1] | pest or weed control at 140 g/ha [1] | pest or weed control at 35 g/ha [2] | pest or weed control at 70 g/ha [2] | pest or weed control at 140 g/ha [2] | pest or weed control at 35 g/ha [3] | pest or weed control at 70 g/ha [3] | pest or weed control at 140 g/ha [3] | pest or weed control at 35 g/ha [4] | pest or weed control at 70 g/ha [4] | pest or weed control at 140 g/ha [4] | pest or weed control at 35 g/ha [5] | pest or weed control at 70 g/ha [5] | pest or weed control at 140 g/ha [5] | pest or weed control at 35 g/ha [6] | pest or weed control at 70 g/ha [6] | pest or weed control at 140 g/ha [6] | pest or weed control at 35 g/ha [7] | other results
COC(=O)c1nc(-c2cc3nonc3cc2F)c(F)c(N)c1Cl [Compound 3, Methyl 4-amino-3-chloro-5-fluoro-6-(6-fluorobenzo[c][1,2,5]oxadiazol-5-yl)picolinate] | 180 to 182 °C | 85 to 94% | 85 to 94% | 95 to 100% | 45 to 59% | 45 to 59% | 60 to 74% | 60 to 74% | 60 to 74% | 75 to 84% | 45 to 59% | 45 to 59% | 60 to 74% | 45 to 59% | 45 to 59% | 45 to 59% | 95 to 100% | 95 to 100% | 95 to 100% | 95 to 100% | pest or weed control at 70 g/ha [7]: 95 to 100%; pest or weed control at 140 g/ha [7]: 75 to 84%; pest or weed control at 35 g/ha [8]: 0 to 29%; pest or weed control at 70 g/ha [8]: 0 to 29%; pest or weed control at 140 g/ha [8]: 0 to 29%; pest or weed control at 35 g/ha [9]: 85 to 94%; pest or weed control at 70 g/ha [9]: 85 to 94%; pest or weed control at 140 g/ha [9]: 85 to 94%; pest or weed control at 35 g/ha [10]: 45 to 59%; pest or weed control at 70 g/ha [10]: 0 to 29%; pest or weed control at 140 g/ha [10]: 0 to 29%; pest or weed control at 35 g/ha [11]: 60 to 74%; pest or weed control at 70 g/ha [11]: 95 to 100%; pest or weed control at 140 g/ha [11]: 95 to 100%; pest or weed control at 35 g/ha [12]: 85 to 94%; pest or weed control at 70 g/ha [12]: 85 to 94%; pest or weed control at 140 g/ha [12]: 95 to 100%
COC(=O)c1nc(-c2cc3nonc3cc2Cl)cc(N)c1Cl [Compound 8] | 224 to 226 °C | 0 to 29% | 0 to 29% | 30 to 44% | 0 to 29% | 0 to 29% | 0 to 29% | 0 to 29% | 0 to 29% | 0 to 29% | 0 to 29% | 0 to 29% | 0 to 29% | 0 to 29% | 0 to 29% | 0 to 29% | 0 to 29% | 0 to 29% | 0 to 29% | 0 to 29% | pest or weed control at 70 g/ha [7]: 0 to 29%; pest or weed control at 140 g/ha [7]: 0 to 29%; pest or weed control at 35 g/ha [8]: 0 to 29%; pest or weed control at 70 g/ha [8]: 0 to 29%; pest or weed control at 140 g/ha [8]: 0 to 29%; pest or weed control at 35 g/ha [9]: 0 to 29%; pest or weed control at 70 g/ha [9]: 0 to 29%; pest or weed control at 140 g/ha [9]: 0 to 29%; pest or weed control at 35 g/ha [10]: 0 to 29%; pest or weed control at 70 g/ha [10]: 0 to 29%; pest or weed control at 140 g/ha [10]: 0 to 29%; pest or weed control at 35 g/ha [11]: 0 to 29%; pest or weed control at 70 g/ha [11]: 0 to 29%; pest or weed control at 140 g/ha [11]: 0 to 29%; pest or weed control at 35 g/ha [12]: 0 to 29%; pest or weed control at 70 g/ha [12]: 0 to 29%; pest or weed control at 140 g/ha [12]: 0 to 29%
